These results are taken from patent US7192928B1, “T cell antigen receptor peptides” (Northern Sydney & Central Coast Area Health Services, priority 1996, dated 2007).

The test system of data set [1] is adjuvant induced arthritis in rats. The data set is described as follows: Adjuvant-induced arthritis in rats. The conditions noted are these: for Summary of in vivo adjuvant induced arthritis results: TREATMENT: 7 mg peptide with 1 mg MTB, rats with arthritis/rats in group; for efficacy against MTB-induced arthritis: section (ii); for efficacy against MTB-induced arthritis / rats showing no symptoms of arthritis / rats with mild disease / minor symptoms: 7 mg peptide; for effectiveness in adjuvant induced arthritis model, summary statement: summary of Table 4; for rats showing no symptoms of arthritis: duration of the experiment. The class given is in vivo, rat.

The nature of data set [2]: Solubility of the peptides in stock solutions. Type of data set: physicochemical. The conditions noted are these: for appearance of peptide stock solution: stock solutions 1 mg/ml or 1 mM. The method, then:
The solubility of the peptides was variable. At the concentration of the stock solutions, 1 mg/ml or 1 mM, most peptide solutions looked clear. […] Therefore, the true concentration of peptides in solution in the culture wells would be less than those nominated in the case of these partially soluble peptides. Core peptide could be dissolved at 2 mg/ml, but was not completely soluble at 5 mg/ml. […] The vehicle for the peptides, except M and N, was 0.1% acetic acid which gave 0.01%, i.e., 1.75 mM in the wells. […] In these experiments, effects of peptides could still be determined by comparison with the vehicle control. The 0.05M sodium carbonate buffer, used to dissolve peptides M and N, was not as detrimental to line T-cells as acetic acid.

The test system of data set [3] is rat primed lymph node cells (PLNC). The conditions noted are these: for effect on antigen-stimulated T-cell proliferation: PLNC Experiment 2, FIG. 3, peptides alone and in combination; for inhibition of antigen-stimulated T-cell proliferation, overall statement: PLNCs and T-cell lines, summary over experiments.
The subject of data set [4] is rat T-cell line specific to MTB. The data set is described as follows: Antigen-stimulated proliferation of MTB-specific T-cell line (3H-thymidine incorporation). The class given is cell-based. The conditions noted are these: for effect on T-cell proliferation / counts relative to vehicle control: 100 μM. On the technique in general: Uptake of a labelled nucleoside into DNA is a usual measure of proliferation.

[5] abbreviates: peptides 7 mg/rat, CS 50 mg/kg, DXM 2 mg/kg.
Where [6] appears, read: section (iii), 5 rats per group.
Where [7] appears, read: T-Cell Line Experiment 2, FIG. 5.
The mark [8] stands for this setting: respective buffers (0.1% acetic acid; 0.05M sodium carbonate for M and N).
Where [9] appears, read: section (i), summary of Table 3 experiments.
Where [10] appears, read: PLNC Experiment 1, FIG. 2, peptide 100 μg/ml.

Several values for one entry are separate records, joined by “and”; a condition that tells them apart may be missing. Equal values may be shown once. Read-outs that look alike come from different tables or passages of the source. Marks after values point to notes of the source that are not given here.

Consider `C[C@@H]1C[C@H]2[C@@H]3CCC4=CC(=O)C=C[C@]4(C)[C@@]3(F)[C@@H](O)C[C@]2(C)[C@@]1(O)C(=O)CO` [DXM*, dexamethasone, reference compound], for which, in data set [1] (setting [5]), the “EFFECT on adjuvant induced arthritis” value is given as “No effect+”.
With “H-AGFNLLMT-OH [Peptide O, A G F N L L M T]”, in data set [1], the “Summary of in vivo adjuvant induced arthritis results: TREATMENT” value (“Summary … TREATMENT” for short) was 1/10*; the “efficacy against MTB-induced arthritis” value is listed as “most effective at ameliorating the development of MTB-induced arthritis”; the “effectiveness in adjuvant induced arthritis model, summary statement” value (from here on “effectiveness”) is “very effective”. Moreover, the “appearance of peptide stock solution” value in data set [2] is “turbid or had undissolved particles”.
As for “H-FLFAEIVSI-OH [Peptide N, F L F A E I V S I]”, in data set [1], the “Summary … TREATMENT” value is given as 0/5* and the “effectiveness” value is “very effective”. Moreover, the “protection” value in data set [1] (section (iii)) is given as “protective to a variable extent”. Further, the “rats showing no symptoms of arthritis” value in data set [1] (setting [6]) was “All five”. Also, the “effect on antigen-stimulated T-cell proliferation” value in data set [3] is recorded as “did not reduce proliferation”. Moreover, the “effect on T-cell proliferation” value in data set [4] (setting [7]) is “no effects”. Also, the solubility in words result in data set [2] (setting [8]) was “soluble in their respective buffers”.
With H-GLRILLLKV-OH [CP, G L R I L L L K V], the “animals with no evidence of arthritis” value in data set [1] (first experiment, three rats per group, after 18 days, suspended in adjuvant, base of tail) is 2/3. Also, the “EFFECT on adjuvant induced arthritis” value is “Protective” in data set [1] (setting [5]) and “Best results” in data set [1] (setting [9]). In addition, the “degree of inhibition of antigen-stimulated T-cell proliferation” value in data set [3] is given as 50-9096%. The “inhibition at different concentrations in the wells” value in data set [3] (20 μl of 1, 2 or 5 mg/ml stock added to the wells (0.1, 0.2, 0.5 mg/ml)) is 0.2 mg/ml CP was more inhibitory than 0.1 mg/ml and 0.5 mg/ml was less effective. The “counts relative to the vehicle control (T-cell proliferation)” value in data set [3] (PLNC Experiment 1, FIG. 2, peptide 100 μg/ml, MTB 100 μg/ml) was “approximately 10%”. The “effect on antigen-stimulated T-cell proliferation” value in data set [3] is “reduced antigen-stimulated T-cell proliferation, whether freshly dissolved or stored for more than three months at 4 °C”. Besides, the “inhibition of antigen-stimulated T-cell proliferation, overall statement” value in data set [3] is “most effective”; in data set [3] (listed as core peptide), “effective at inhibiting antigen-stimulated T-cell proliferation”. Further, the “proliferation reduced by” value in data set [3] (first experiment) was “go”. The “counts (tritiated thymidine incorporation)” value in data set [4] (T-Cell Line Experiment 1, FIG. 4, 100 μg/ml, vehicle control approximately 30000) is “approximately 18000 cpm”. The “counts relative to the control level” value in data set [4] (T-Cell Line Experiment 1, FIG. 4, 200 μg/ml) was “about 25%”. In addition, the “counts relative to vehicle control” value in data set [4] (setting [7]) is given as “approximately 33%”. In addition, the “counts relative to the control” value in data set [4] (T-Cell Line Experiment 2, FIG. 5, 200 μM) is reported as around 16%.
In the case of “H-IIVTDVIATL-OH [Peptide M, I I V T D V I A T L]”, in data set [1], the “Summary … TREATMENT” value was 2/5; the “effectiveness” value was “variable response in the delay of disease induction and severity”. Moreover, in data set [1] (section (iii)), the “protection” value is given as “protective to a variable extent”. Also, in data set [1] (setting [6]), the “rats with mild disease / minor symptoms” value is reported as “Two” and the “rats showing no symptoms of arthritis” value is “One”. Further, the “rats of the group killed” value in data set [1] (section (iii), 5 rats per group, on days 19 and 21) is listed as 2. The “effect on antigen-stimulated T-cell proliferation” value in data set [3] is “did not reduce proliferation”. Besides, in data set [4] (setting [7]), the “effect on T-cell proliferation” value is listed as “no effects”. Further, the solubility in words result in data set [2] is “soluble in their respective buffers”.
On to H-ILLLKVAG-OH [B, I L L L K V A G], for which the “EFFECT on adjuvant induced arthritis” value is on record as “Protective” in data set [1] (setting [5]) and “Best results” in data set [1] (setting [9]).
As to “H-IVIVDICIT-OH [Peptide L, I V I V D I C I T]”, in data set [1], the “Summary … TREATMENT” value was 0/5* and the “effectiveness” value is on record as “very effective”. Besides, the weight loss result in data set [1] (section (iv), FIG. 10, 7 mg peptide L, five rats) is recorded as “none of the peptide L treated group lost weight”. Also, in data set [1] (section (iv), FIG. 11(a–d), 7 mg peptide L), the “paw and ankle thickness” value is listed as “significantly decreased compared to control”.
Turning to H-LDILLLEV-OH [E, L D I L L L E V], the “EFFECT on adjuvant induced arthritis” value in data set [1] (setting [5]) was “No effect”; in data set [1] (setting [9]), “no effect”.
Consider H-LGILLLGV-OH [C, L G I L L L G V], for which the results for the “EFFECT on adjuvant induced arthritis” value in data set [1] (setting [5]) and in data set [1] (setting [9]) were “No effect” and “no effect”, respectively.
On to H-LGILLLKV-OH [I, L G I L L L K V], for which, in data set [1] (setting [5]), the “EFFECT on adjuvant induced arthritis” value is on record as “Protective”. Further, in data set [2], the “appearance of peptide stock solution” value is “turbid or had undissolved particles”.
As for “H-LLMTLRLWSS-OH [Peptide P, L L M T L R L W S S]”, in data set [1], the “Summary … TREATMENT” value was 0/5; the “effectiveness” value is “variable response in the delay of disease induction and severity”. Also, the “rats that developed minor symptoms” value in data set [1] (Table 4, of 5 treated rats) is listed as “(4 developed minor symptoms)”. Moreover, the “protection” value in data set [1] (section (iii)) was “protective to a variable extent”. For the same compound, in data set [1] (setting [6]), the “rats with mild disease / minor symptoms” value was “four” and the “rats showing no symptoms of arthritis” value is reported as “one”. Also, the “effect on T-cell proliferation” value in data set [3] (setting [10]) is recorded as “most inhibitory”. The “effect on antigen-stimulated T-cell proliferation” value in data set [3] was “showed activity”. Besides, the “effect on T-cell proliferation” value in data set [4] (setting [7]) is recorded as “marginal effect”. For the same compound, in data set [2], the “appearance of peptide stock solution” value is “turbid or had undissolved particles”.
Turning to “H-LRILLLGV-OH [Peptide H, L R I L L L G V]”, the “EFFECT on adjuvant induced arthritis” value in data set [1] (setting [5]) was “Protective”. Moreover, the “effect on T-cell proliferation” value in data set [3] (setting [10]) is listed as “appeared to reduce T-cell proliferation”. Also, the “counts relative to vehicle control” value in data set [4] (setting [7]) stood at 66%. The “appearance of peptide stock solution” value in data set [2] was “turbid or had undissolved particles”.
As for “H-MGLRILLL-OH [Peptide A, M G L R I L L L]”, the “EFFECT on adjuvant induced arthritis” value in data set [1] (setting [5]) is “Protective”.
Regarding “H-SSDVPCDATLT-OH [K, S S D V P C D A T L T]”, in data set [1], the “Summary … TREATMENT” value is recorded as 5/10; the “efficacy against MTB-induced arthritis” value is “comparable in efficacy”; the “effectiveness” value is “variable response in the delay of disease induction and severity”. Further, in data set [2] (setting [8]), the solubility in words entry is recorded as “soluble in their respective buffers”.
Turning to “H-YGRADCGITS-OH [Peptide J, Y G R A D G G I T S]”, in data set [1], the “Summary … TREATMENT” value was 3/10*; the “efficacy against MTB-induced arthritis” value was “comparable in efficacy”; the “effectiveness” value is listed as “very effective”.
